Assay [1] deals with T1, opioid receptor (Mus musculus, UniProt P42866).
T1 construct: Five CF-1 male mice (Charles River, Portage, MI); from tissue; host or cells: living CF-1 male mice (whole animal, endogenous receptor)
Description: in vivo. Also on record: species or system CF-1 male mice. The settings on record: sc.

The target of assay [2] is peripheral opioid receptors (Mus musculus, UniProt P42866). Description: mouse diarrhea test: precipitated diarrhea in morphine-maintained mice (peripheral opioid activity). Type of assay: in vivo. The settings on record: mouse diarrhea test, morphine-maintained mice, subcutaneous or oral, 30 min observation.
The subject of assay [3] is peripheral opioid receptors. The description is as above. Type of assay: in vivo.
Assay [4] deals with T2, mu receptor (Rattus norvegicus, UniProt P33535).
T2 construct: The brain tissue, rat whole brain minus cerebellum for mu was homogenized; from tissue; host or cells: brain minus cerebellum of male Sprague Dawley rats, homogenate fraction
Description: Naloxone [3H] opioid receptor binding assay (mu receptor). Also on record: species or system rat (male Sprague Dawley).

Where [5] appears, read: mouse writhing test, […], s.c. 20 min before acetic acid, read-out: AD50 (the source's name).
Where [6] appears, read: AD50 mouse writhing / ED50 mouse diarrhea, higher = greater relative peripheral antagonism.
[7] abbreviates: 20 min, pH 7.4, 10 nM test compound, [3H]naloxone 0.5 nM, mu receptor, read-out: % displacement at 10 nM.
[8] abbreviates: 20 min, pH 7.4, 100 nM test compound, [3H]naloxone 0.5 nM, mu receptor, read-out: % displacement at 100 nM.
Setting [9] is: mouse writhing test, dose of antagonist that reduced inhibition of writhing by 1.25 mg/kg morphine sulfate to 50%, s.c. 20 min before acetic acid, read-out: AD50 (the source's name).
Setting [10] is: 20 min, pH 7.4, read-out: % displacement at 10 nM.
The mark [11] stands for this setting: 20 min, pH 7.4, read-out: % displacement at 100 nM.
The mark [12] stands for this setting: […], rat whole brain minus cerebellum, [3H]naloxone 0.5 nM, pH 7.4, 37° C., 20 min, read-out: Ki.

Where a name gives a salt, the structure may show the parent alone. Read-outs that look alike come from different tables or passages of the source. Bounds are passed on as bounds.

Sequence of peripheral opioid receptors (Mus musculus, UniProt P42866) (P42866 whole entry): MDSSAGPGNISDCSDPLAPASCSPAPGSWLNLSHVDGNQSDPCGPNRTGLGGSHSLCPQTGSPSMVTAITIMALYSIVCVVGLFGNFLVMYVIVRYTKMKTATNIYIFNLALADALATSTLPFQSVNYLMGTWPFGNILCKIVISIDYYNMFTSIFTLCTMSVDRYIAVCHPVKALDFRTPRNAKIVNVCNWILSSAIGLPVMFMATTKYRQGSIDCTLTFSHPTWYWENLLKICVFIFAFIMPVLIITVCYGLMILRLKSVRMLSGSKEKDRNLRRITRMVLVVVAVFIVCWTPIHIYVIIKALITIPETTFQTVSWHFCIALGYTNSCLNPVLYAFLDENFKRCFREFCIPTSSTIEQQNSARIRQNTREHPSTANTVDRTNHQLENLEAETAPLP
T1 sequence (P42866 whole entry): as above
T2 sequence (P33535 whole entry): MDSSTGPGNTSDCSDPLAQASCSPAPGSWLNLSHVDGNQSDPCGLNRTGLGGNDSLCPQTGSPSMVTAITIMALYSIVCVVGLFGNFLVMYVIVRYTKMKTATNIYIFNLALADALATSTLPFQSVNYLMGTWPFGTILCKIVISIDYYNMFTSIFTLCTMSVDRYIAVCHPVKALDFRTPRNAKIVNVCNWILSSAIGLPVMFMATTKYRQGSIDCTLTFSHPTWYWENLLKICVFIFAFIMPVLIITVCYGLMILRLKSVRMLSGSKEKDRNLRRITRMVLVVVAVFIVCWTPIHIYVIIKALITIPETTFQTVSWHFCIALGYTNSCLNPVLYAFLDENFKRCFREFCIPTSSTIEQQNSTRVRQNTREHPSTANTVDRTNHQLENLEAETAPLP

For the compound `C[C@H]1CN(CCN(C(=O)CCC(=O)O)c2ccccc2)CC[C@@]1(C)c1cccc(O)c1` (relative stereo) [Example 19, 4-((2-(Trans-4-(3-hydroxyphenyl)-3,4-dimethyl-1-piperidinyl)ethyl)phenylamino-4-oxobutanoic acid monohydrate], the ED50 in assay [1] (setting [5]) is 6.3 mg/kg; in assay [2] (0.5 h, read-out: ED50), 0.082 mg/kg. Also, the “Ratio (ratio of AD50 to ED50)” value in assay [3] (setting [6]) came to 77. In assay [4] (setting [7]), the inhibition at 0.01 µM was found to be 48%. Besides, in assay [4] (setting [8]), the inhibition at 0.1 µM is 92%.

`C[C@H]1CN(CCN(C(=O)CC(=O)O)C2CCCCC2)CC[C@@]1(C)c1cccc(O)c1` (relative stereo) [Example 21, 3-(cyclohexyl-(2-(trans-4-(3-hydroxyphenyl)-3,4-dimethyl-1-piperidinyl)ethyl)amino)-3-oxopropanoic acid monohydrate]: the ED50 in assay [1] (setting [5]) came out at 17.1 mg/kg; in assay [2] (0.5 h, read-out: ED50), 0.073 mg/kg. Also, in assay [3] (setting [6]), the “Ratio (ratio of AD50 to ED50)” value came out at 71. In assay [4] (setting [7]), the inhibition at 0.01 µM was determined as 53%. For the same compound, in assay [4] (setting [8]), the inhibition at 0.1 µM stood at 80%.

In the case of `C[C@H]1CN(CCN(C(=O)CCC(=O)O)C2CCCC2)CC[C@@]1(C)c1cccc(O)c1` (relative stereo) [Example 24, 4-(cyclopentyl-2-(trans-4-(3-hydroxyphenyl)-3,4-dimethyl-1-piperidinyl)ethyl)amino)-4-oxobutanoic acid hemihydrate], the ED50 was 19.2 mg/kg in assay [1] (setting [5]) and 0.62 mg/kg in assay [2] (0.5 h, read-out: ED50). Besides, the “Ratio (ratio of AD50 to ED50)” value in assay [3] (setting [6]) is recorded as 31. The inhibition at 0.01 µM in assay [4] (setting [7]) was determined as 48%. Also, in assay [4] (setting [8]), the inhibition at 0.1 µM is 89%.

For the compound `CC(C)CCN(CCN1CC[C@@](C)(c2cccc(O)c2)[C@@H](C)C1)C(=O)CCC(=O)O` (relative stereo) [Example 28, 4-(3-methylbutyl-(2-(trans-4-(3-hydroxyphenyl)-3,4-dimethyl-1-piperidinyl)ethyl)amino)-4-oxobutanoic acid monohydrate], the ED50 in assay [1] (setting [9]) was greater than 1.25 mg/kg; in assay [2] (0.5 h, read-out: ED50), 0.1 mg/kg. Besides, the “Ratio (ratio of AD50 to ED50)” value in assay [3] (setting [6]) is listed as greater than 12. In assay [4] (setting [7]), the inhibition at 0.01 µM worked out at 67%. Further, the inhibition at 0.1 µM in assay [4] (setting [8]) was found to be 100%.

`CC(C)CN(CCCN1CC[C@@](C)(c2cccc(O)c2)[C@@H](C)C1)C(=O)CCCC(=O)O` (relative stereo) [Example 29, 5-(2-Methylpropyl-(3-(trans-4-(3-hydroxyphenyl)-3,4-dimethyl-1-piperidinyl)propyl)amino)-5-oxopentanoic acid monohydrate]: the ED50 was 7.6 mg/kg in assay [1] (setting [5]) and 0.99 mg/kg in assay [2] (0.5 h, read-out: ED50). The “Ratio (ratio of AD50 to ED50)” value in assay [3] (setting [6]) is given as 7.7. For the same compound, in assay [4] (setting [7]), the inhibition at 0.01 µM was found to be 56%. Also, the inhibition at 0.1 µM in assay [4] (setting [8]) is 88%.

As for `CCOC(=O)CCCC(=O)N(CCN1CC[C@@](C)(c2cccc(O)c2)[C@@H](C)C1)C1CCCCC1` (relative stereo) [Example 32, 5-(Cyclohexyl-(2-(trans-4-(3-hydroxyphenyl)-3,4-dimethyl-1-piperidinyl)ethyl)amino)-5-oxopentanoic acid ethyl ester monohydrochloride], the ED50 in assay [1] (setting [5]) was found to be 9.4 mg/kg; in assay [2] (0.5 h, read-out: ED50), 0.16 mg/kg. For the same compound, the “Ratio (ratio of AD50 to ED50)” value in assay [3] (setting [6]) stood at 59. Further, the inhibition at 0.01 µM in assay [4] (setting [7]) was 40%. In addition, the inhibition at 0.1 µM in assay [4] (setting [8]) is 100%.

With `C[C@H]1CN(CCN(C(=O)CC(N)=O)C2CCCCC2)CC[C@@]1(C)c1cccc(O)c1` (relative stereo) [Example 34, N-Cyclohexyl-N-(2-(trans-4-(3-hydroxyphenyl)-3,4-dimethyl-1-piperidinyl)ethyl)propanediamidehydrochloride monohydrate], the ED50 in assay [1] (setting [5]) came to 8.2 mg/kg; in assay [2] (0.5 h, read-out: ED50) it was 0.39 mg/kg. The “Ratio (ratio of AD50 to ED50)” value in assay [3] (setting [6]) is given as 21. Also, the inhibition at 0.01 µM in assay [4] (setting [7]) is 77%. Moreover, the inhibition at 0.1 µM in assay [4] (setting [8]) amounted to 91%.

Take `CNC(=O)CC(=O)N(CCN1CC[C@@](C)(c2cccc(O)c2)[C@@H](C)C1)C1CCCCC1` (relative stereo) [Example 36, N-Methyl-3-oxo-3-((2-(trans-4-(3-hydroxyphenyl)-3,4-dimethyl-1-piperidinyl)ethyl)cyclohexylamino)propanamidemonohydrochloride monohydrate]: the ED50 was determined as 2.9 mg/kg in assay [1] (setting [5]) and 0.39 mg/kg in assay [2]. Moreover, in assay [3] (setting [6]), the “Ratio (ratio of AD50 to ED50)” value came to 8. In addition, in assay [4] (setting [10]), the inhibition at 0.01 µM came out at 85%. Besides, the inhibition at 0.1 µM in assay [4] (setting [11]) came out at 99%. Besides, the inhibitory constant (Ki) (usually the equilibrium dissociation constant of an inhibitor or competing ligand from its target) in assay [4] (setting [12]) was found to be 3.01 nM.

In the case of `CCOC(=O)CCC(=O)N(CCN1CC[C@@](C)(c2cccc(O)c2)[C@@H](C)C1)C1CCCCC1` (relative stereo) [Example 71], the ED50 in assay [1] (setting [5]) came to 3.71 mg/kg; in assay [2], 0.29 mg/kg. The “Ratio (ratio of AD50 to ED50)” value in assay [3] (setting [6]) amounted to 13. Further, the inhibition at 0.01 µM in assay [4] (setting [10]) was 78%. The inhibition at 0.1 µM in assay [4] (setting [11]) came out at 96%. Further, the Ki in assay [4] (setting [12]) is 3.85 nM.

Turning to `CC(C)COC(=O)CCC(=O)N(CCN1CC[C@@](C)(c2cccc(O)c2)[C@@H](C)C1)C1CCCCC1` (relative stereo) [Example 72], the ED50 in assay [1] (setting [5]) was 5.5 mg/kg; in assay [2] (0.5 h, read-out: ED50) it was 0.017 mg/kg. Also, the “Ratio (ratio of AD50 to ED50)” value in assay [3] (setting [6]) came out at 324. The inhibition at 0.01 µM in assay [4] (setting [7]) was determined as 73%. For the same compound, the inhibition at 0.1 µM in assay [4] (setting [8]) was 96%.

For `C[C@H]1CN(CCN(C(=O)CCC(=O)OCC2CCCCC2)C2CCCCC2)CC[C@@]1(C)c1cccc(O)c1` (relative stereo) [Example 73], the ED50 was determined as 9.2 mg/kg in assay [1] (setting [5]) and 0.17 mg/kg in assay [2] (0.5 h, read-out: ED50). Besides, the “Ratio (ratio of AD50 to ED50)” value in assay [3] (setting [6]) is 54. In assay [4] (setting [7]), the inhibition at 0.01 µM was found to be 46%. Further, in assay [4] (setting [8]), the inhibition at 0.1 µM worked out at 88%.

For the compound `CCOC(=O)CCC(=O)NC(CCN1CC[C@@](C)(c2cccc(O)c2)[C@@H](C)C1)CC(C)C` (single isomer, unassigned) [Example 2A, 4-[[1-[2-[4-(3-hydroxyphenyl)-3,4-dimethyl-1-piperidinyl]-ethyl]-3-methylbutyl)amino]-4-oxobutanoic acid ethyl ester], the ED50 in assay [1] (setting [5]) is 8.4 mg/kg; in assay [2] it was 0.29 mg/kg. Also, in assay [3] (setting [6]), the “Ratio (ratio of AD50 to ED50)” value was 29. The inhibition at 0.01 µM in assay [4] (setting [10]) came out at 98%. For the same compound, in assay [4] (setting [11]), the inhibition at 0.1 µM is 100%. Moreover, in assay [4] (setting [12]), the inhibition constant (Ki) came out at 0.64 nM.

On to `CC1CN(C[C@H](CC2CCCCC2)NC(=O)CCCC(=O)O)CCC1(C)c1cccc(O)c1` (single isomer, unassigned; (+)) [Example 16], for which the values for the ED50 in assay [1] (setting [5]) and in assay [2] were greater than 20 mg/kg and 0.12 mg/kg, respectively. For the same compound, the “Ratio (ratio of AD50 to ED50)” value in assay [3] (setting [6]) is greater than 166. Besides, the inhibition at 0.01 µM in assay [4] (setting [10]) worked out at 97%. In assay [4] (setting [11]), the inhibition at 0.1 µM was 100%. For the same compound, the inhibition constant (Ki) in assay [4] (setting [12]) was found to be 0.96 nM.

On to `C[C@H]1CN(CCC(NC(=O)C(CCCNC(=N)N[N+](=O)[O-])NC(=O)CCCC(=O)NCc2ccccc2)c2ccccc2)CC[C@@]1(C)c1cccc(O)c1` (single isomer, unassigned; (-)) [Example 8, (-)-N-(1-phenyl-3-(trans-4-(3-hydroxyphenyl)-3,4-dimethyl-1-piperidinyl)propyl)-2-((1,5-dioxo-5-(phenylmethyl)amino)pentyl)amino-5-((imino(nitroamino)methyl)-amino)pentanamide], for which the ED50 in assay [1] (setting [9]) is greater than 1.25 mg/kg; in assay [2] it was 0.64 mg/kg. Moreover, the “Ratio (ratio of AD50 to ED50)” value in assay [3] (setting [6]) is greater than 2. In addition, the inhibition at 0.01 µM in assay [4] (setting [10]) was 95%. In assay [4] (setting [11]), the inhibition at 0.1 µM is 99%. For the same compound, the inhibition constant Ki in assay [4] (setting [12]) came out at 0.68 nM.

As to `CC(C)C(=O)NCCCC(=O)NC(CCCNC(=N)N[N+](=O)[O-])C(=O)NC(CCN1CC[C@@](C)(c2cccc(O)c2)[C@@H](C)C1)c1ccccc1` (single isomer, unassigned; (-)) [Example 9, (-)-N-(1-phenyl-3-(trans-4-(3-hydroxyphenyl)-3,4-dimethyl-1-piperidinyl)propyl)-2-((1-oxo-4-(2-methyl-1-oxopropyl)amino)butyl)amino-5-((imino(nitroamino)-methyl)amino)pentanamide], the ED50 is greater than 1.25 mg/kg in assay [1] (setting [9]) and 0.25 mg/kg in assay [2]. Further, the “Ratio (ratio of AD50 to ED50)” value in assay [3] (setting [6]) is greater than 5. In addition, in assay [4] (setting [11]), the inhibition at 0.1 µM amounted to 100%. Also, in assay [4] (20 min, pH 7.4, 10 nM test compound, [3H]naloxone 0.5 nM, […], read-out: % displacement at 10 nM), the inhibition at 0.01 µM is 92%. The Ki in assay [4] (setting [12]) worked out at 1.33 nM.

For the compound `C[C@H]1CN(CCC(CC2CCCCC2)NC(=O)CCC(=O)O)CC[C@@]1(C)c1cccc(O)c1` (stereo partly drawn) [Example 1, 4-[(3-(4-(3-hydroxyphenyl)-3,4-dimethyl-1-piperidinyl)-1-(cyclohexylmethyl)propyl)amino]-4-oxobutanoic acid monohydrate], the ED50 in assay [1] (mouse, read-out: AD50) is greater than 40 mg/kg; in assay [2], 0.01 mg/kg. Also, the “Ratio (ratio of AD50 to ED50)” value in assay [3] (mouse, in vivo) is listed as greater than 4000. Further, in assay [4], the Ki was found to be 6.88 nM. For the same compound, the inhibition at 0.01 µM in assay [4] (setting [10]) was determined as 72%. Besides, in assay [4] (setting [11]), the inhibition at 0.1 µM is 94%.
